Five compounds from patent publication US6835370B2, “Diagnosis and treatment of malignant neoplasms” (Rhode Island Hospital, priority 1999, dated 2004) can be followed below.

The test system of data set [1] is HAAH gene expression. The data set is described as follows: insulin stimulation of HAAH gene expression in FOCUS HCC cells. In kind it is cell-based, human. As to conditions: 20 and 40 U insulin, serum free medium, after 16 hr of serum starvation. The text has this:
IRS-1 mediated signal transduction pathway is activated in 95% of human HCC tumors compared to the adjacent uninvolved liver tissue. HAAH is a downstream effector gene involved in this signal transduction pathway. […] A high level of HAAH protein is expressed in HCC and cholangiocarcinoma compared to normal hepatocytes and bile ducts.

For data set [2], the system named is human AAH cDNA (pHAAH). The data set is described as follows: in vitro cell free transcription translation assay (TNT Quick Coupled System). In kind it is biochemical. As to conditions: 100× or 1000× excess oligonucleotide; rabbit reticulocyte lysate, [35S] methionine, SDS-PAGE autoradiography. As for the experimental part: Using an in vitro cell free transcription translation assay (TNT Quick Coupled System), the human AAH cDNA (pHAAH) was used to synthesize AAH protein. […] The translated product was labeled with [^35S] methionine in the presence of reaction buffer, RNA polymerase, amino acid mixture, and ribonuclease inhibitor (RNAsin). The products were analyzed by SDS-PAGE followed by autoradiography. A luciferase (Luc) expressing plasmid was used as a positive control. In the second and third lanes, synthesis of the ˜85 kD AAH protein is shown (AAH, arrow) using 1 or 2 micrograms of plasmid as the template and the T7 DNA-dependent RNA polymerase primer/promoter to generate mRNA.

In data set [3] the test system is AAH. As to the kind of experiment: MICE assay of AAH immunoreactivity in transfected cells. In kind it is cell-based. To be noted: relative to cells transfected with random oligonucleotide. As for the experimental part:
Inhibition of HAAH gene expression is enhanced by contacting cells with a phosphorothioate derivative of the HAAH antisense. Phosphorothioate antisense derivatives are made using methods well known in the art. The MILQ assay was used to measure gene expression resulting from antisense oligonucleotide gene delivery. Cells were contacted with AAH Location-6 antisense DNA, and AAH protein expression was measured using methods known in the art, e.g., the MICE assay (de la Monte, et al, 1999, Biotechniques), to determine if it was inhibited by hybridization with the oligonucleotide. The MICE assay is used to measure inimunoreactivity in cultured cells without the need to extract proteins or perform gel electrophoresis. This assay is more sensitive than Western blot analysis. Using the MICE assay, AAH immunoreactivity was assessed in cells transfected with non-relevant (random) oligonucleotide sequences, specific antisense oligonucleotides (Location-6), and a phosphorothioate Location-6 antisense oligonucleotide.

Data set [4] concerns AAH in PNET2 cells. The data set is described as follows: Western blot of AAH expression in treated PNET2 cells. Format: cell-based, Human. How it is done: Studies were conducted to determine whether AAH expression was modulated with neurite (filopodia) extension (sprouting) as occurs with invasive growth of malignant neoplasms. Human PNET2 CNS-derived and SH-Sy5y neuroblastoma cells were cultured and stimulated for 0, 1, 2, 3, 5, or 7 days with 100 nM phorbol […] or 10 μM retinoic acid to induce sprouting. […] For both studies, AAH expression was evaluated by Western blot analysis using the an HAAH-specific antibody.
(§1) Cells grown in 10 cm^2 dishes were lysed and homogenized in a standard radioimmunoprecipitation assay RIPA buffer containing protease and phosphatase inhibitors. The supernatants collected after centrifuging the samples at 12,000×g for 10 minutes to remove insoluble debris were used for Western blot analysis. Protein concentration was measured using the BCA assay (Pierce Chemical Co, Rockford, Ill.). Samples containing 60 μg of protein were electrophoresed in sodium dodecyl sulfate polyacrylamide gels (SDS-PAGE) and subjected to Western blot analysis. Replicate blots were probed with the individual antibodies. Immunoreactivity was detected with horseradish peroxidase conjugated IgG (Pierce Chemical Co, Rockford, Ill.) and enhanced chemiluminescence reagents. To quantify the levels of protein expression, non-saturated autoradiographs were subjected to volume densitometry using NIH Image software, version 1.6. […]
A general note: In western blotting, separated proteins are transferred to a membrane and probed.

In data set [5] the test system is AAH in SH-Sy5y cells. As to the kind of experiment: Western blot of AAH expression in treated SH-Sy5y cells. As to conditions: up to 7 days, FIG. 5B. Format: cell-based, Human. As for the experimental part:
Studies were conducted to determine whether AAH expression was modulated with neurite (filopodia) extension (sprouting) as occurs with invasive growth of malignant neoplasms. Human PNET2 CNS-derived and SH-Sy5y neuroblastoma cells were cultured and stimulated for 0, 1, 2, 3, 5, or 7 days with 100 nM phorbol […] or 10 μM retinoic acid to induce sprouting. In addition, to examine the effects of neurite retraction on AAH expression, subconfluent cultures were treated for 24 hours with low concentrations (10-40 μM) of H2O2. For both studies, AAH expression was evaluated by Western blot analysis using the an HAAH-specific antibody.
as §1, with “Samples containing 60 μg of protein were electrophoresed in sodium dodecyl sulfate polyacrylamide gels (SDS-PAGE) and subjected to Western blot analysis. Replicate blots were probed with the individual antibodies.” left out

Data set [6] relates to PNET2 cells. As to the kind of experiment: Trypan blue dye exclusion viability. In kind it is cell-based, Human. As to conditions: 24 hours, sub-lethal concentrations of H2O2. How it is done: FIGS. 5A-D are bar graphs showing increased AAH expression in PNET2 (FIGS. 5A, 5C) and SH-Sy5y (FIG. 5B) cells treated with retinoic acid (FIGS. 5A, 5B) or phorbol ester myristate (PMA; FIG. 5C) to induce neurite outgrowth as occurs during tumor cell invasion. The cells were treated with 10 μM retinoic acid or 100 nM PMA for 0, 1, 2, 3, 4, or 7 days. Cell lysates were analyzed by Western blot analysis using an HAAH-specific monoclonal antibody to detect the 85 kDa AAH protein. The levels of immunoreactivity were measured by volume densitometry (arbitrary units). The graphs indicate the mean±S.D. of results obtained from three separate experiments. In FIG. 5D, PNET2 cells were treated for 24 hours with sub-lethal concentrations of H2O2 to induce neurite retraction. […] Similar results were obtained for SH-Sy5y cells.
To examine the effect of AAH expression on neurite retraction, PNET2 and SH-Sy5y cells were treated with low concentrations (8-40 μM) of H2O2.

On to “Insulin: insulin used to stimulate FOCUS HCC cells”, for which, in data set [1], the HAAH gene expression entry is on record as “upregulation”.

As for “5′ ATCATGCAATGGCCCAGCGTAA 3′ (sense ATCATGCAATGGCCCAGCGTAA; listed as DNA, chemistry not given here) [sense oligonucleotide, sense oligonucleotide beginning at Location-3, control]”, the “inhibition of AAH protein synthesis” value in data set [2] was “no effect”.

Turning to “5′ TTACGCTGGGCCATTGCACG 3′ (antisense TTACGCTGGGCCATTGCACG; listed as DNA, chemistry not given here) [Location-6, AAH antisense oligonucleotide (20 mer)]”, the AAH immunoreactivity entry in data set [3] is reported as “reduced levels”. For `CCCCCCCCCCCCCC(=O)O[C@@H]1[C@@H](C)[C@@]2(O)[C@@H](C=C(CO)C[C@]3(O)C(=O)C(C)=C[C@@H]23)[C@@H]2C(C)(C)[C@]12OC(C)=O` [PMA, phorbol ester myristate], in data set [4] (24 hours after exposure, 10 μM retinoic acid or 100 nM PMA), the “increase in levels of AAH protein” value is reported as “at least two-fold”. Besides, in data set [5], the “RA- or PMA-stimulated increases in AAH expression” value is “highest after 7 days of treatment”. Turning to `OO` [H2O2], in data set [6], the “Viability of the cells” value is given as “greater than 90%”. Further, in data set [4] (24 hours, 8-40 μM H2O2, FIG. 5D), the “levels of AAH protein” value is on record as “dose-dependent reductions”.
